Measurements from US12522614B2, “Topical phosphoinositide 3-kinase inhibitors” (VENTHERA, INC., priority 2019, dated 2026).
Each block holds one compound with its values, some of them ahead of it.

Key:
[1] = Accelerated stability study of topical gel formulations at 80° C.; format: physicochemical; conditions: gel formulation (Table 2 excipients), 80° C.
Procedure: Topical gel formulations were prepared using excipients as shown in Table 2 according to Example 8, in which Compounds 1.002, 1.012, and 1.006 were used as the active ingredient, respectively. These gel formulations were subjected to stability study at 80° C. for 10 days. Stability under the condition of at 80° C. for 10 days is expected to be approximately equivalent to the stability for three (3) years at room temperature. A relative purity of the tested compound after being exposed for 5 days and 10 days at 80° C. was determined by HPLC, as compared to its initial purity (at day 0).
The values shown in the table are percent hydrolysis of the respective compounds to the parent compound MTPP.
Topical gel formulations of Compound 1.002 were prepared using excipients as shown in Table 2 according to Example 8, in which the content of oleic acid varied at 1%, 2%, 5%, and 10%, respectively. These gel formulations were subjected to stability study at 80° C. for 10 days, which is expected to be approximately equivalent to the stability for three (3) years at room temperature. A purity of the tested compound on day 0, 5, 7, and 10 at 80° C. was determined by HPLC. The detected impurity of the tested compound appears to be the hydrolysis product, as MTPP. Table 17 represents stability data of Compound 1.002 in topical formulations having oleic acid at various contents.
Gel formulations of Example 17 were subjected to stability study at 80° C. for 10 days. Stability under the condition of at 80° C. for 10 days is expected to be approximately equivalent to the stability for three (3) years at room temperature. A relative purity of Compound 1.002 after being exposed for 5 days and 10 days at 80° C. was determined by HPLC, as compared to its initial purity (at day 0).

[2] = In vitro human skin permeation study of topical gel formulations (Franz diffusion cells); format: in vitro ADME; conditions: saturated gel formulations, skin flux experiments
Source text: The gel formulation of Example 8 was used as the donor phase to determine the permeation of Compound 1.002 through human skin and its effectiveness as a topical application. Three skin donors and three diffusion cells (for each donor) per formulation were used in the in vitro skin permeation experiments. Split thickness dermatomed (approximately at […] thickness) human cadaver skin, supplied by New York Firefighters Skin Bank, NY, was used to determine the permeation rate of the tested compound (i.e., the drug) in vitro. All in vitro skin permeation studies were conducted using the Vertical Diffusion Cells assembly with consoles (Model FDC-6), and heating controllers (Logan Instruments Inc. Somerset, NJ). Each assembly consisted of six vertical, jacketed (37° C.±0.5° C.) 12-mL Franz diffusion cells with magnetic stirrer and 1.767 cm^2 diffusion area.
(§1) Skin flux studies were run for a period of 48 hours. At predetermined intervals (2, 4, 8, 24 and 48 hours) after starting the experiment, the entire contents of the receiver compartment were collected for determining concentrations of the drug by HPLC. The receiver compartment was refilled with fresh receiver medium. The receiver medium was pH 7.4 phosphate buffer with 0.5 mg/ml of Oleath 20 with the saturation concentration of the drug in the receptor medium being 0.152 mg/ml. This solubility of the drug in the receiver medium was enough to ensure sink conditions throughout each collection interval.
Samples of the receptor phase were obtained at 2, 4, 8, 12, 24 and 48 h and concentrations of Compound 1.002 and 3-(4-morpholinothieno(3,2-d)pyrimidin-2-yl)phenol (metabolite of Compound 1.002, abbreviated as MTPP) were determined using a validated HPLC method. The metabolism of Compound 1.002 to MTPP takes place in the human skin by esterase enzymes.
HPLC method: Column—Gemini C-18 4.6×150 mm, 5 μm particle size; Mobile Phase—water:acetonitrile 25:75 containing 0.1% TFA; Flow Rate—1 mL/min; Detection—274 nm; Column Temperature—40° C.; and Run Time—10 min. The retention times for MTPP and Compound 1.002 were 3.9 and 7.2 minutes, respectively.
The skin flux of drugs and cumulative amount of drugs permeated (sum of MTPP and Compound 1.002) for a period of 48 hours were calculated and are shown in Table 3. FIG. 3 represents a plot of Cumulative amount permeated versus time.

[3] = as above; format: in vitro ADME; conditions: human skin; for Cumulative permeation (intact compound): Study-4, saturated gel
[4] = Saturation concentration in formulation or receiver medium; format: physicochemical; conditions: gel formulation with excipients of Example 8 (Table 2)
Procedure: The liquid excipients, i.e. DMSO, oleic acid, Transcutol® P, and dipropylene glycol were mixed in a 20-mL vial, by vortex agitation. The active ingredient, a compound of formula (I), for example Compound 1.002 was then added, and the vial content was sonicated for 10 minutes to dissolve the compound. […] Hydroxylpropyl cellulose (HPC) was added, and the vial was agitated by vortex for another ten minutes to obtain the gel formulation. The viscosity of the clear gel was measured to be in a range of about 7,000 to 10,000 centipoise (cp).
as §1

[5] = system: cancer cell; conditions: U.S. Pat. No. 6,838,457; cited from earlier work
[6] = biological target: T1, PI3Kg (p110g) (Homo sapiens, UniProt P48736); test: Lipid kinase inhibitory activity, ADP-Glo; format: biochemical; conditions: γ
T1 construct: purchased Reaction Biology Corporation (RBC)
T1 sequence (P48736 whole entry): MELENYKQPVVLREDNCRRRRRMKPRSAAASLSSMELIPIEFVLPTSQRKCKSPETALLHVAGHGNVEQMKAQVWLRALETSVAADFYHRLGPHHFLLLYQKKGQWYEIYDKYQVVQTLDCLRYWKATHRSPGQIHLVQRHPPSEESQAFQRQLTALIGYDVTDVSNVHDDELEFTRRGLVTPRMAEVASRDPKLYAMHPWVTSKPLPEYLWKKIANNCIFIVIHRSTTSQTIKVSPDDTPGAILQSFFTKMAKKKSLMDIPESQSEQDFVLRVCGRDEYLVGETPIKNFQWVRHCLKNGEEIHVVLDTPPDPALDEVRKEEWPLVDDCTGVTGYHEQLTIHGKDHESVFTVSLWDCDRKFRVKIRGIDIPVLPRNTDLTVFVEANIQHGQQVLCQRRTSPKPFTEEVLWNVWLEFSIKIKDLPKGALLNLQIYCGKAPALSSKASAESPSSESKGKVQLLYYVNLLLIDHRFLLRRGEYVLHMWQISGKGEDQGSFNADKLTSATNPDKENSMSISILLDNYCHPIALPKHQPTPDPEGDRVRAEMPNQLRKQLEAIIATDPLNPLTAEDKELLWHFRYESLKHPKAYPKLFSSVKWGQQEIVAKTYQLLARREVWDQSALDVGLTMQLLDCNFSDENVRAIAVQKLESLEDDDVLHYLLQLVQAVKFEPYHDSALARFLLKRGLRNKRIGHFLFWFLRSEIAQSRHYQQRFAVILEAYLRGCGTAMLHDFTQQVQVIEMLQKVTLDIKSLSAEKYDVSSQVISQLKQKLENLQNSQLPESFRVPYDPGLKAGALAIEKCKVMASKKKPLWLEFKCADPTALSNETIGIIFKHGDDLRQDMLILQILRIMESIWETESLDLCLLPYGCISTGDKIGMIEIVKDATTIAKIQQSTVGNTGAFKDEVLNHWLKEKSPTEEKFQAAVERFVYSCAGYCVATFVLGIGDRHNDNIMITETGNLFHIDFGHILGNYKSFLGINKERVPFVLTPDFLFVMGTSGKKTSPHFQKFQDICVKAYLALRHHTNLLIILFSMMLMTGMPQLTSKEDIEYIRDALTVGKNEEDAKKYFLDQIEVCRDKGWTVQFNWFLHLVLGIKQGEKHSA
Procedure: (§2) Lipid kinases: Lipid kinases from Reaction Biology Corporation (RBC) in ADP-Glo format were used.
(§3) Assay Description: The kinase reactions utilized ATP and produced ADP as a byproduct. The ADP production was quantified by ADP-Glo luminescence detection. This assay was a 3-step reaction. First, the kinase reaction with lipid substrate was carried out in the presence of ATP, and the reaction was quenched and depleted remaining ATP with ADP-Glo™ reagent, and then finally ADP was converted to ATP which was measured using a luciferase/luciferin reaction.
(§4) Assay Procedure: The assay was performed according to the steps as follows: • 1. Preparing substrate in freshly prepared reaction buffer; • 2. Delivering kinase into the substrate solution and gently mixing; • 3. Delivering compounds in […] into the kinase reaction mixture by Acoustic technology (Echo550; nanoliter range), incubating for 20 minutes at room temperature; • 4. Delivering ATP into the reaction mixture to initiate the reaction; • 5. Incubating for 30 minutes at 30° C.; • 6. Quenching the reaction with ADP-Glo reagent and incubating for 40 minutes; • 7. Adding Detection Mixture and incubating for 30 minutes; and • 8. Measuring luminescence.
(§5) Data Analysis: The luminescence was converted into μM ADP production based on ADP standard curves. The nonlinear regression to obtain the standard curve and IC50 values were performed using Graphpad Prism software.

[7] = biological target: T2, PI3Ka (p110a/p85a) (Homo sapiens, UniProt P42336); test: Lipid kinase inhibitory activity, ADP-Glo; format: biochemical; conditions: α
T2 construct: purchased Reaction Biology Corporation (RBC)
T2 sequence (P42336 whole entry): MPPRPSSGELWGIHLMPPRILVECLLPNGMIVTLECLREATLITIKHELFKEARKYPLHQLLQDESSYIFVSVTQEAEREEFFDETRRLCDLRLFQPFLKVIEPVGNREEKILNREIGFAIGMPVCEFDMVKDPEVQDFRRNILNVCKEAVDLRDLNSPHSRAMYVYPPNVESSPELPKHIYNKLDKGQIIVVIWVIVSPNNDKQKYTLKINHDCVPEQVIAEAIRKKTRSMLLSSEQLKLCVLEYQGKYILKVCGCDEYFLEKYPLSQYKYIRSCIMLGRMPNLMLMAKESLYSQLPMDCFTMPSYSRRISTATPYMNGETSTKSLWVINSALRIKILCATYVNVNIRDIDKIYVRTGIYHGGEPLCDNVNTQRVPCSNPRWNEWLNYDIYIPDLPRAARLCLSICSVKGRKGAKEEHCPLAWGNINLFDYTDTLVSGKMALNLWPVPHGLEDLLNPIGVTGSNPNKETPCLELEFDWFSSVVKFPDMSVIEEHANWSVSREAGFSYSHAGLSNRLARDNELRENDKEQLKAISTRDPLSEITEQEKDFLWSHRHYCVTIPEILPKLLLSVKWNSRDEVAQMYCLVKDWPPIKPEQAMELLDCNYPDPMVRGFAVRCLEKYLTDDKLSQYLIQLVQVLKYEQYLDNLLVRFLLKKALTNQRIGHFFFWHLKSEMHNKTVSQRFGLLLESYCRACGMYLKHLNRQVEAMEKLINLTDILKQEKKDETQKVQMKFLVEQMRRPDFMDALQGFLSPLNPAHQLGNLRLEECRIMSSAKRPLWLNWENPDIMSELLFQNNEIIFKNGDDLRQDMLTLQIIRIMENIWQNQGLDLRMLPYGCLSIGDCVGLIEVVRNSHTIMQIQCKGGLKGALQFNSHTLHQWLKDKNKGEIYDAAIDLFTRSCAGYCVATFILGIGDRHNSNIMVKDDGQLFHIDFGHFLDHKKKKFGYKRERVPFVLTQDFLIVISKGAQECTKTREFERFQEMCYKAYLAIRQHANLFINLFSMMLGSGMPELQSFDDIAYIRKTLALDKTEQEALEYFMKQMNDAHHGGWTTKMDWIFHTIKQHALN
T2 sequence (P27986 whole entry partner): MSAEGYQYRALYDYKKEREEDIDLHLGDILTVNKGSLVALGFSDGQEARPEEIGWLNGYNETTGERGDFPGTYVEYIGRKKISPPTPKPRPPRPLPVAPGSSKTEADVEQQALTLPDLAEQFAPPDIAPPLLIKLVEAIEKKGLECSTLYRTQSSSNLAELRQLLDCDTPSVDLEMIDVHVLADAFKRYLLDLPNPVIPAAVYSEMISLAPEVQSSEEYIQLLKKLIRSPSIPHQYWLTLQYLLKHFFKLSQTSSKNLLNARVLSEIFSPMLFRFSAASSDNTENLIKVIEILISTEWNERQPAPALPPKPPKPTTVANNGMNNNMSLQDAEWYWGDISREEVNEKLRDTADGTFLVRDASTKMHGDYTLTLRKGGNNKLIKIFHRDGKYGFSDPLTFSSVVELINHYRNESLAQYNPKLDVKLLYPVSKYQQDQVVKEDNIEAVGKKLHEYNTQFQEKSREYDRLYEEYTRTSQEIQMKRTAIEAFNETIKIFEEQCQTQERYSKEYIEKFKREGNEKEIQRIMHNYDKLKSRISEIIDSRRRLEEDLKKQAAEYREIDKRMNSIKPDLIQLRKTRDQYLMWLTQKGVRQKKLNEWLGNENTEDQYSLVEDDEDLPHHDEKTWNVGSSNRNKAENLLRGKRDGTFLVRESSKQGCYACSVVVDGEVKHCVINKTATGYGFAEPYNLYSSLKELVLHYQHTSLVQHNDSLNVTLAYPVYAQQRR
Procedure: as §2, §3, §4, §5

[8] = biological target: T3, PI3K (p110a(H1047R)/p85a) (Homo sapiens, UniProt P42336, H1047R); test: Lipid kinase inhibitory activity, ADP-Glo; format: biochemical; conditions: α H1047R
T3 construct: purchased Reaction Biology Corporation (RBC)
T3 sequence (P42336 whole entry H1047R): as the sequence (P42336 whole entry) above, with H1047R counted along it
T3 sequence (P27986 whole entry partner): as the sequence (P27986 whole entry partner) above
Procedure: as §2, §3, §4, §5

[9] = biological target: T4, MTOR/FRAP1 (Homo sapiens, UniProt P42345); test: Lipid kinase inhibitory activity, ADP-Glo; format: biochemical
T4 construct: purchased Reaction Biology Corporation (RBC)
Procedure: as §2, §3, §4, §5

[10] = biological target: T5, PI3Kd (p110d/p85a) (Homo sapiens, UniProt O00329); test: Lipid kinase inhibitory activity, ADP-Glo; format: biochemical; conditions: δ
T5 construct: purchased Reaction Biology Corporation (RBC)
Procedure: as §2, §3, §4, §5

[11] = biological target: T6, PI3K (p110a(E545K)/p85a) (Homo sapiens, UniProt P42336, E545K); test: Lipid kinase inhibitory activity, ADP-Glo; format: biochemical; conditions: α E545K
T6 construct: purchased Reaction Biology Corporation (RBC)
T6 sequence (P42336 whole entry E545K): as the sequence (P42336 whole entry) above, with E545K counted along it
T6 sequence (P27986 whole entry partner): as the sequence (P27986 whole entry partner) above
Procedure: as §2, §3, §4, §5

[12] = biological target: T7, PI3Kb (p110b/p85a) (Homo sapiens, UniProt P42338); test: Lipid kinase inhibitory activity, ADP-Glo; format: biochemical; conditions: β
T7 construct: purchased Reaction Biology Corporation (RBC)
T7 sequence (P42338 whole entry): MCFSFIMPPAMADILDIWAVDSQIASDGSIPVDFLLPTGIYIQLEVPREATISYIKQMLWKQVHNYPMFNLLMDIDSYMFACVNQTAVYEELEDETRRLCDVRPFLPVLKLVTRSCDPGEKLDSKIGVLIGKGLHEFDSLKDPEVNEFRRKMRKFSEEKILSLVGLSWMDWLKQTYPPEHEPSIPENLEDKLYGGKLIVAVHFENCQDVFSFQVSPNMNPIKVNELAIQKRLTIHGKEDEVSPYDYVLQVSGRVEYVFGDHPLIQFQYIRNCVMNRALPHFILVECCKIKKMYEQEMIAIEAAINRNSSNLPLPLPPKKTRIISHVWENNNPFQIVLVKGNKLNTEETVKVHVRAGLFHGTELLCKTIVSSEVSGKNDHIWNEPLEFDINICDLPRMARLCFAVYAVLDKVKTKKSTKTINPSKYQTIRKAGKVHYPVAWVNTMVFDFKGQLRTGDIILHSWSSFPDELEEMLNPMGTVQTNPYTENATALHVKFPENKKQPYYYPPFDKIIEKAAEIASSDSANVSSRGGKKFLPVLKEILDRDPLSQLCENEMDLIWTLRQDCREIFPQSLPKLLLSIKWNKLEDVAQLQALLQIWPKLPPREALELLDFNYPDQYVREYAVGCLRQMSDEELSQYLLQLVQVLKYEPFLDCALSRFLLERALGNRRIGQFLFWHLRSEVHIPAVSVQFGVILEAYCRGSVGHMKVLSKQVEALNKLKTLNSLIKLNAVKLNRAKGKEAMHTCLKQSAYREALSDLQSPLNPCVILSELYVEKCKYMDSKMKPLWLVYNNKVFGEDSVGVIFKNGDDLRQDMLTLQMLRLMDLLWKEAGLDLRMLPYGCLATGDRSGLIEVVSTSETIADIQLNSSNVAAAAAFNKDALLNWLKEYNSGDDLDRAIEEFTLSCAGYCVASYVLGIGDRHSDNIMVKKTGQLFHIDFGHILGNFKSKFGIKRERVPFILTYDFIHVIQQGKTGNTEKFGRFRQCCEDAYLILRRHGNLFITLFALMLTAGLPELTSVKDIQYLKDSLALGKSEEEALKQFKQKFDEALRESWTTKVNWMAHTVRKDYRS
T7 sequence (P27986 whole entry partner): as the sequence (P27986 whole entry partner) above
Procedure: as §2, §3, §4, §5

[13] = biological target: T8, PI3K (p110a(E542K)/p85a) (Homo sapiens, UniProt P42336, E542K); test: Lipid kinase inhibitory activity, ADP-Glo; format: biochemical; conditions: α E542K
T8 construct: purchased Reaction Biology Corporation (RBC)
T8 sequence (P42336 whole entry E542K): as the sequence (P42336 whole entry) above, with E542K counted along it
T8 sequence (P27986 whole entry partner): as the sequence (P27986 whole entry partner) above
Procedure: as §2, §3, §4, §5

[14] = system: PI3K; conditions: U.S. Pat. No. 6,838,457; cited from earlier work
[15] = Study-5, Table 6A experiment, saturated gel, 2 h
[16] = Study-5, Table 6A experiment, saturated gel, 4 h
[17] = Study-5, Table 6A experiment, saturated gel, 8 h
[18] = Study-5, Table 6A experiment, saturated gel, 24 h
[19] = Study-5, Table 6A experiment, saturated gel, 48 h
[20] = Study-5, Table 6B experiment, gel saturated at 215 mg/mL, 2 h
[21] = Study-5, Table 6B experiment, gel saturated at 215 mg/mL, 4 h
[22] = Study-5, Table 6B experiment, gel saturated at 215 mg/mL, 8 h
[23] = Study-5, Table 6B experiment, gel saturated at 215 mg/mL, 24 h
[24] = Study-5, Table 6B experiment, gel saturated at 215 mg/mL, 48 h

Relative Purity ([1]; Day 0): 100% | Relative Purity ([1]; Day 5): 94% | Relative Purity ([1]; Day 10): 92% | Metabolism to MTPP during permeation through human skin [2]: metabolize into MTPP | Cumulative permeation, Compound 1.006 [3, 15]: 0.0 μg/cm^2 | Hydrolysis of Cmpd. 1.006 to MTPP [3, 15]: 100% | Cumulative permeation, Compound 1.006 [3, 16]: 0.0 μg/cm^2 | Hydrolysis of Cmpd. 1.006 to MTPP [3, 16]: 100% | Cumulative permeation, Compound 1.006 [3, 17]: 1.0 μg/cm^2 | Hydrolysis of Cmpd. 1.006 to MTPP [3, 17]: 96.7% | Cumulative permeation, Compound 1.006 [3, 18]: 13.0 μg/cm^2 | Hydrolysis of Cmpd. 1.006 to MTPP [3, 18]: 79.5% | Cumulative permeation, Compound 1.006 [3, 19]: 30.5 μg/cm^2 | Hydrolysis of Cmpd. 1.006 to MTPP [3, 19]: 82.0% | Cumulative permeation, Compound 1.006 [3, 20]: 0.0 μg/cm^2 | Hydrolysis of Cmpd. 1.006 to MTPP [3, 20]: 100% | Cumulative permeation, Compound 1.006 [3, 21]: 0.5 μg/cm^2 | Hydrolysis of Cmpd. 1.006 to MTPP [3, 21]: 93.3% | Cumulative permeation, Compound 1.006 [3, 22]: 0.5 μg/cm^2 | Hydrolysis of Cmpd. 1.006 to MTPP [3, 22]: 97.8% | Cumulative permeation, Compound 1.006 [3, 23]: 0.6 μg/cm^2 | Hydrolysis of Cmpd. 1.006 to MTPP [3, 23]: 98.9% | Cumulative permeation, Compound 1.006 [3, 24]: 0.6 μg/cm^2 | Hydrolysis of Cmpd. 1.006 to MTPP [3, 24]: 99.4% | Saturation concentration in the gel formulation [4]: 215 mg/mL
SMILES: CCCCCC(=O)Oc1cccc(-c2nc(N3CCOCC3)c3sccc3n2)c1 [Compound 1.006, 3-(4-Morpholinothieno[3,2-d]pyrimidin-2-yl)phenyl Hexanoate]

IC50 [6]: 90 nM | IC50 [7]: 5.2 nM | IC50 [8]: 7.2 nM | IC50 [9]: 218 nM | IC50 [10]: 19 nM | IC50 [11]: 6.3 nM | IC50 [12]: 38 nM | IC50 [13]: 5.6 nM | Metabolism to MTPP during permeation through human skin [2]: permeated as its intact compound | Cumulative permeation (intact compound) ([3]; 2 h): 0.23 μg/cm^2 | Cumulative permeation (intact compound) ([3]; 4 h): 4.74 μg/cm^2 | Cumulative permeation (intact compound) ([3]; 8 h): 15.85 μg/cm^2 | Cumulative permeation (intact compound) ([3]; 24 h): 43.32 μg/cm^2 | Cumulative permeation (intact compound) ([3]; 48 h): 70.13 μg/cm^2
SMILES: Oc1cccc(-c2nc(N3CCOCC3)c3sccc3n2)c1 [MTPP, 3-(4-morpholinothieno(3,2-d)pyrimidin-2-yl)phenol, reference compound]
Cancer cell growth inhibiting activity [5]: cancer cell growth inhibiting activity | PI3K inhibiting activity [14]: excellent PI3K inhibiting activity
